Each structure is given as a SMILES string. Active and inactive are the calls of the source. No cut-off for these calls is given here.

These results are taken from ChEMBL document CHEMBL6153140, “Pestones A and B from a Fungus Pestalotiopsis sp. Bound to Mutant p53 and Changed Its Conformation” (J Nat Prod, 2025).

Series [1] is described as follows: Cytotoxicity against human SAOS-2 cells harboring p53 […] mutant incubated for 3 days by MTT assay. The series is classed as functional, cell-based. To be noted: SAOS-2, 72 h.
The subject of series [2] is SAOS-2. As to the kind of experiment: Effect on conformation of p53 […] mutant in human SAOS-2 cells at 100 uM incubated for 6 hrs by Hoechst 33342 staining based immunofluorescence analysis. The series is classed as functional, cell-based.
Series [3] deals with SAOS-2. As to the kind of experiment: Effect on conformation of p53 […] mutant in human SAOS-2 cells at 2 uM incubated for 6 hrs by Hoechst 33342 staining based immunofluorescence analysis. The series is classed as functional, cell-based.
A short description of series [4]: Induction of apoptosis in human SAOS-2 cells harboring p53 […] mutant assessed as necrotic cells at 4 uM incubated for 24 hrs by Annexin V-FITC/PI staining based flow cytometric analysis (reference value: 0.4%). The series is classed as functional.
Series [5] in a line: Toxicity in male BALB/c Slc-nu/nu mouse assessed as effect on body weight loss administered IT(Intratumoral) every other day and measured after 13 days. Conditions: in vivo, 312 h, time 13 day.
A short description of series [6]: Induction of apoptosis in human SAOS-2 cells harboring p53 […] mutant assessed as early apoptotic cells at 4 uM incubated for 24 hrs by Annexin V-FITC/PI staining based flow cytometric analysis (reference value: 4.1%). The class given is functional.
Series [7] is described as follows: Induction of apoptosis in human SAOS-2 cells harboring p53 […] mutant assessed as viable cells at 4 uM incubated for 24 hrs by Annexin V-FITC/PI staining based flow cytometric analysis (reference value: 94.3%). The class given is functional. To be noted: read-out: Activity.
The nature of series [8]: Induction of apoptosis in human SAOS-2 cells harboring p53 […] mutant assessed as fold increase in early apoptotic cells at 4 uM incubated for 24 hrs by Annexin V-FITC/PI staining based flow cytometric analysis. The series is classed as functional.
For series [9], the system named is SAOS-2. As to the kind of experiment: Binding affinity to p53 […] mutant in human SAOS-2 cells assessed as thermal stabilization at 5 uM at 40 to 43 degreeC incubated for 1 hr by CETSA based Western blot analysis. The series is classed as cell-based.
The nature of series [10]: Induction of apoptosis in human SAOS-2 cells harboring p53 […] mutant assessed as late apoptotic cells at 4 uM incubated for 24 hrs by Annexin V-FITC/PI staining based flow cytometric analysis (reference value: 1.2%). The class given is functional.
The next series relates to HuCCT-1. As to the kind of experiment: Antitumor activity against human HuCCT-1 cells harboring p53 […] mutant xenografted in male BALB/c Slc-nu/nu mouse model assessed as reduction in tumor volume administered IT(Intratumoral) every other day and measured on day 13 (reference value: 56 to 98 mm3). The series is classed as functional. To be noted: time 13 day.
A short description of series [11]: Induction of apoptosis in human SAOS-2 cells harboring p53 […] mutant assessed as fold increase in late apoptotic cells at 4 uM incubated for 24 hrs by Annexin V-FITC/PI staining based flow cytometric analysis. The class given is functional.

As to `C/C=C/C1=C(CO)[C@@H](O)[C@@H]2O[C@]2([C@H](O)C=C(C)C)C1=O`, the IC50 in series [1] is more than 20 µM. The result in the series on SAOS-2 [2] was inactive.
For the molecule `CC(C)=C[C@@H](O)[C@]12O[C@H]1[C@H](O)C1=C(C2=O)C2C(C)OC1[C@]13C(=O)[C@@]4([C@H](O)C=C(C)C)O[C@H]4[C@H](O)C1=CO[C@@H](C)[C@H]23` (some centres not stated), in series [1], the IC50 is more than 20 µM.
Regarding `CC(C)=C[C@@H](O)[C@]12O[C@H]1C(=O)C1=C(C2=O)C2[C@H](C)OC1[C@]13C(=O)[C@@]4([C@H](O)C=C(C)C)O[C@H]4C(=O)C1=CO[C@@H](C)[C@H]23` (some centres not stated), in series [1], the half-maximal inhibitory concentration (IC50) was 1.1 µM. For the same molecule, the outcome in the series with SAOS-2 [3] was Active.
On to `CC(C)=C[C@@H](O)[C@]12O[C@H]1C(=O)C1=C(C2=O)C2[C@@H]3[C@@H](C)OC=C4C(=O)[C@@H]5O[C@]5([C@H](O)C=C(C)C)C(=O)[C@]43C1O[C@@H]2C` (some centres not stated), for which the Activity in series [4] is recorded as 0.7%; in series [5] it was “Non-toxic”; in series [6], 13.6%; in [10] it was 5.7%; with HuCCT-1, 140 mm3. This molecule also registered an IC50 in series [1] of 1 µM. Besides, the result in the series with SAOS-2 [3] and in the series on SAOS-2 [9] was Active. Besides, in series [7], the viability at 4 µM was 80%. In addition, the “fold change (FC)” value was determined as 3.3 in series [8] and 4.8 in series [11].
For `C/C=C/C1=C(CO)C(=O)[C@@H]2O[C@]2([C@H](O)C=C(C)C)C1=O`, the half-maximal inhibitory concentration (IC50) in [1] turned out to be 0.92 µM.
